11 compounds from patent US20260176289A1, “SMALL MOLECULE INHIBITORS OF KRAS PROTEINS” (Merck Sharp & Dohme LLC, priority 2022, published 2026) can be followed below.

One experiment deals with KRAS-WT (Homo sapiens, UniProt P01116). The experiment in a line: SOS-catalyzed nucleotide exchange assay (Procedure A, TR-FRET), KRAS-WT. Type of experiment: biochemical. Conditions: nucleotide exchange, read-out: KRAS WT GNE IC50. The essentials: (§1)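 TR-FRET readout (520/495 nm) of SOS-driven exchange of Bodipy-GDP for unlabeled GTP (3 mM) on biotinylated, Tb-streptavidin-bound RAS, after 60 min compound preincubation at room temperature. Exchange times and RAS/SOS levels: 60 min for WT (1/40 nM), G12C triple mutant (3/40 nM), NRAS (1.25/40 nM); 90 min for G12V (1.25/160 nM). Four-parameter logistic fits on normalized effect.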
On the technique in general: In TR-FRET formats the signal depends on donor and acceptor labels being close together.

Experiment [1] concerns the target KRAS-G12C (C51S/C80L/C118S) (Homo sapiens, UniProt P01116, C118S/C51S/C80L/G12C). Description: SOS-catalyzed nucleotide exchange assay (Procedure A, TR-FRET), KRAS-G12C. Format: biochemical. The note with it: nucleotide exchange, Procedure A; read-out: KRAS G12C GNE IC50. The essentials: as §1
The next experiment deals with KRAS-G12D (Homo sapiens, UniProt P01116, G12D). The experiment in a line: SOS-catalyzed nucleotide exchange assay (Procedure A, TR-FRET), KRAS-G12D. The note with it: nucleotide exchange, read-out: KRAS G12D GNE IC50. Type of experiment: biochemical. The essentials:
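Signal ratio (520/495 nm, excitation 340 nm) reports Bodipy-GDP retention on biotinylated RAS after SOS-catalyzed exchange with 3 mM GTP. SOS was 40 nM, except 160 nM for G12V. Room-temperature exchange lasted 60 min (90 min for G12V), following a 60 min compound preincubation.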

The target in a further experiment is KRAS-G12V (Homo sapiens, UniProt P01116, G12V). Description: SOS-catalyzed nucleotide exchange assay (Procedure A, TR-FRET), KRAS-G12V. Type of experiment: biochemical. The note with it: nucleotide exchange, read-out: KRAS G12V GNE IC50. A digest of the protocol: as §1
The next experiment addresses KRAS-G13D (Homo sapiens, UniProt P01116, G13D). The experiment in a line: SOS-catalyzed nucleotide exchange assay (Procedure A, TR-FRET), KRAS-G13D. Type of experiment: biochemical. The note with it: nucleotide exchange, Procedure A; read-out: KRAS G13D GNE IC50.
For the next experiment, the system named is MKN-1 cells. The experiment in a line: Cellular phospho-ERK assay, MKN-1 cells (amplified wild-type KRAS). Conditions: Homo sapiens, read-out: MKN1 pERK IC50. Format: cell-based. A digest of the protocol: (§2)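 Overnight-plated cells on collagen received test compound (up to 30 μM final, threefold steps, ten concentrations) for two hours. After lysis at room temperature, phosphorylated and total ERK were quantified together by Alpha SureFire, and IC50 is based on the phospho-to-total signal ratio.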

The next experiment has as its system AsPC-1 cells. Description: Cellular phospho-ERK assay, AsPC-1 cells (homozygous KRAS-G12D). The note with it: Homo sapiens, ASPC1, 2 h, read-out: AsPC1 pERK IC50. Type of experiment: cell-based. A digest of the protocol:
as §2

Another experiment has as its system SW620 cells. Description: Cellular phospho-ERK assay, SW620 cells (homozygous KRAS-G12V). Format: cell-based. The note with it: Homo sapiens, read-out: SW620 pERK IC50. A digest of the protocol:
as §2

Setting [2] is: amplified wild-type KRAS, 2 hours.
[3] abbreviates: SW-620, 2 hours compound incubation.

Read-outs that look alike come from different tables or passages of the source.

Chain of KRAS-G12C (C51S/C80L/C118S) (P01116 with tags, fused parts or gaps isoform P01116-2 G12C/C51S/C80L/C118S): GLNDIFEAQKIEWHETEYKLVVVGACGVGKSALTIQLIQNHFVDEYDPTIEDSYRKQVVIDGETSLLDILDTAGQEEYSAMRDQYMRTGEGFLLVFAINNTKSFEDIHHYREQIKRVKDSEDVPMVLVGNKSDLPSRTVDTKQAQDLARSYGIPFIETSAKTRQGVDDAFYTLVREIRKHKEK
Chain of KRAS-WT (P01116 with tags, fused parts or gaps isoform P01116-2): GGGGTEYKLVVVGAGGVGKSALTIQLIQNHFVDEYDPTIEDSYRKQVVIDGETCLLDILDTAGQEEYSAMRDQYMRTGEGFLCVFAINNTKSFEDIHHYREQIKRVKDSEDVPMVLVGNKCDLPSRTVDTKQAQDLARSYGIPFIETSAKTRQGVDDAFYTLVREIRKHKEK
Chain of KRAS-G12V (P01116 with tags, fused parts or gaps isoform P01116-2 G12V): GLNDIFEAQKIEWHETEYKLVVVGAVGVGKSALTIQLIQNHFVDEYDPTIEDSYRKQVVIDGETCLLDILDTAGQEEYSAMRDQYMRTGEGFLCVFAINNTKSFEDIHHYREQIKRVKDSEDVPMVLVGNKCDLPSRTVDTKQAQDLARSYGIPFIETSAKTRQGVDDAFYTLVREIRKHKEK
Chain of KRAS-G13D (P01116 with tags, fused parts or gaps isoform P01116-2 G13D): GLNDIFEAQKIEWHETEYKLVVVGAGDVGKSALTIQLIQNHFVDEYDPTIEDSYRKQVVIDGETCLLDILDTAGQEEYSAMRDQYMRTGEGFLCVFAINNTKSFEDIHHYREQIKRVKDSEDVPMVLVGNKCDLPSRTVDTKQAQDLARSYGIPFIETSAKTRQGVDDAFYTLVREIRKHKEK
Chain of KRAS-G12D (P01116 with tags, fused parts or gaps isoform P01116-2 G12D): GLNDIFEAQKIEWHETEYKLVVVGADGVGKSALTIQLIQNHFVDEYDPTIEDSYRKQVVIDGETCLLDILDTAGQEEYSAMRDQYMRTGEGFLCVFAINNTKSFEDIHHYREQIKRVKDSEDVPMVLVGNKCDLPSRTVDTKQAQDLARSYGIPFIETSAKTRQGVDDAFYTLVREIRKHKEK

In the case of `C[C@@]1(O)COCCN(c2nc(OC[C@@]34CCCN3C[C@H](F)C4)nc3sc4c(-c5c(C6CCC6)c(Cl)cc6[nH]ncc56)nccc4c23)C1` [Ex-69, (6S)-4-(8-(6-chloro-5-cyclobutyl-1H-indazol-4-yl)-2-(((2R,7aS)-2-fluorotetrahydro-1H-pyrrolizin-7a(5H)-yl)methoxy)pyrido[4′,3′:4,5]thi-eno[2,3-d]pyrimidin-4-yl)-6-methyl-1,4-oxazepan-6-ol], the half-inhibitory concentration (IC50) is 28.6 nM on KRAS-WT; 20.4 nM in experiment [1]; 6.79 nM at KRAS-G12D; 10.2 nM at KRAS-G12V; 12.5 nM at KRAS-G13D; 52.7 nM in the experiment with MKN-1 cells (setting [2]). In addition, the half-inhibitory concentration (IC50) is 68.5 nM in the experiment with AsPC-1 cells (KRAS-G12D, 2 hours) and 51.9 nM with SW620 cells (SW-620, KRAS-G12V, 2 hours).

Regarding `C[C@@]1(O)COCCN(c2nc(OC[C@@]34CCCN3C[C@H](F)C4)nc3sc4c(-c5c(C6CC6)c(Cl)cc6[nH]ncc56)nccc4c23)C1` [Ex-144, (6S)-4-(8-(6-chloro-5-cyclopropyl-1H-indazol-4-yl)-2-(((2R,7aS)-2-fluoro-tetrahydro-1H-pyr-rolizin-7a(5H)-yl)-methoxy)pyrido [4′,3′:4,5]thieno[2,3-d]pyrimidin-4-yl)-6-methyl-1,4-oxaze-pan-6-ol], the 50% inhibitory concentration (IC50) on KRAS-WT was found to be 14.6 nM; in experiment [1], 46 nM; on KRAS-G12D it was 6.2 nM; on KRAS-G12V it was 14.3 nM; on KRAS-G13D it was 10.7 nM; with MKN-1 cells (2 hours compound incubation), 53.2 nM. Besides, the IC50 worked out at 41.7 nM with AsPC-1 cells (2 hours compound incubation) and 73 nM in the experiment on SW620 cells (setting [3]).

With `C[C@@]1(O)COCCN(c2nc(OC[C@@]34CCCN3C/C(=C\F)C4)nc3sc4c(-c5c(C6(F)CC6)c(C(F)(F)F)cc6[nH]ncc56)nccc4c23)C1` [Ex-56, (6S)-4-(8-(5-(1-fluorocyclopropyl)-6-(trifluoromethyl)-1H-indazol-4-yl)-2-(((S,Z)-2-(fluoromethylene)tetrahy-dro-1H-pyrrolizin-7a(5H)-yl)methoxy)pyrido[4′,3′:4,5]thi-eno[2,3-d]pyrimidin-4-yl)-6-methyl-1,4-oxazepan-6-ol], the IC50 on KRAS-WT was 26.5 nM; in experiment [1], 128 nM; at KRAS-G12D, 9.15 nM; at KRAS-G12V it was 32.6 nM; at KRAS-G13D, 22.6 nM; with MKN-1 cells (setting [2]) it was 45.6 nM. Further, the concentration for half-maximal inhibition (IC50) was determined as 48.9 nM with AsPC-1 cells (KRAS-G12D, 2 hours) and 57.5 nM in the experiment on SW620 cells (SW-620, KRAS-G12V, 2 hours).

For `C=C(C)c1c(Cl)cc2[nH]ncc2c1-c1nccc2c1sc1nc(OC[C@@]34CCCN3C[C@H](F)C4)nc(N3CCOC[C@@](C)(O)C3)c12` [Ex-142, (6S)-4-(8-(6-chloro-5-(prop-1-en-2-yl)-1H-indazol-4-yl)-2-(((2R,7aS)-2-fluoro-tetrahydro-1H-pyr-rolizin-7a(5H)-yl)-methoxy)pyrido [4′,3′:4,5]thieno[2,3-d]pyrimidin-4-yl)-6-methyl-1,4-oxaze-pan-6-ol], the IC50 worked out at 49.2 nM on KRAS-WT; 34 nM in experiment [1]; 19.2 nM on KRAS-G12D; 29.3 nM on KRAS-G12V; 31.1 nM at KRAS-G13D; 120 nM in the experiment with MKN-1 cells (2 hours compound incubation). The IC50 was found to be 82.1 nM in the experiment with AsPC-1 cells (2 hours compound incubation) and 96.7 nM with SW620 cells (setting [3]).

On to `CC(C)c1c(Cl)cc2[nH]ncc2c1-c1nccc2c1sc1nc(OC[C@@]34CCCN3C[C@H](F)C4)nc(N3CCOC[C@@](C)(O)C3)c12` [Ex-145, (6S)-4-(8-(6-chloro-5-isopropyl-1H-ind-azol-4-yl)-2-(((2R, 7aS)-2-fluorotetra-hydro-1H-pyrrol-izin-7a(5H)-yl)meth-oxy)pyrido[4′,3′:4,5]thieno[2,3-d]pyr-imidin-4-yl)-6-meth-yl-1,4-oxazepan-6-ol], for which the IC50 came out at 58.9 nM at KRAS-WT; 44.3 nM in experiment [1]; 34.3 nM on KRAS-G12D; 73.2 nM on KRAS-G12V; 27.8 nM on KRAS-G13D; 155 nM in the experiment with MKN-1 cells (2 hours compound incubation). Also, the IC50 in the experiment with AsPC-1 cells (2 hours compound incubation) came to 119 nM; with SW620 cells (setting [3]), 120 nM.

As to `C=C(C)c1c(C(F)(F)F)cc2[nH]ncc2c1-c1nccc2c1sc1nc(OCC34CCCN3CC(F)C4)nc(N3CCOCC(C)(O)C3)c12` [Ex-60, (6S)-4-(2-(((2R,7aS)-2-fluorotetrahydro-1H-pyrrolizin-7a(5H)-yl)methoxy)-8-(5-(prop-1-en-2-yl)-6-(trifluoromethyl)-1H-indazol-4-yl)pyrido[4′,3′:4,5]thieno [2,3-d]pyrimidin-4-y])-6-methyl-1,4-oxazepan-6-ol], the 50% inhibitory concentration (IC50) worked out at 29 nM on KRAS-WT; 22.4 nM in experiment [1]; 9.46 nM on KRAS-G12D; 18.6 nM on KRAS-G12V; 15.8 nM at KRAS-G13D; 44.5 nM with MKN-1 cells (setting [2]). Besides, the IC50 worked out at 99.5 nM in the experiment with AsPC-1 cells (KRAS-G12D, 2 hours) and 41.9 nM with SW620 cells (SW-620, KRAS-G12V, 2 hours).

Take `C#Cc1cc(F)cc2cc3[nH]ncc3c(-c3nccc4c3sc3nc(OC[C@@]56CCCN5C[C@H](F)C6)nc(N5CCOC[C@@](C)(O)C5)c34)c12` [Ex-165]: the IC50 came to 18.6 nM at KRAS-WT; 21.7 nM in experiment [1]; 6.79 nM at KRAS-G12D; 11 nM on KRAS-G12V; 14.1 nM at KRAS-G13D; 41.5 nM in the experiment with MKN-1 cells (2 hours compound incubation). Also, the figures for the 50% inhibitory concentration (IC50) in the experiment with AsPC-1 cells (2 hours compound incubation) and in the experiment on SW620 cells (setting [3]) were 40.7 nM and 31.2 nM, respectively.

For `CC[C@@H]1CCCc2cc3[nH]ncc3c(-c3nccc4c3sc3nc(OC[C@@]56CCCN5C[C@H](F)C6)nc(N5CCOC[C@@](C)(O)C5)c34)c21` [Ex-176], the IC50 at KRAS-WT amounted to 19.8 nM; in experiment [1], 10.5 nM; at KRAS-G12D, 6.22 nM; on KRAS-G12V it was 11.6 nM; on KRAS-G13D it was 12.5 nM; in the experiment on MKN-1 cells (2 hours compound incubation), 44.8 nM. Further, the IC50 in the experiment on AsPC-1 cells (2 hours compound incubation) was found to be 51.9 nM; with SW620 cells (setting [3]), 22.7 nM.

As to `C[C@@]1(O)COCCN(c2nc(OC[C@@]34CCCN3C[C@H](F)C4)nc3sc4c(-c5c(C6CC6)c(C(F)(F)F)cc6[nH]ncc56)nccc4c23)C1` [Ex-76, (6S)-4-(8-(5-cyclopropyl-6-(trifluoromethyl)-1H-indazol-4-yl)-2-(((2R,7aS)-2-fluorotetrahydro-1H-pyrrolizin-7a(5H)-yl)methoxy)pyrido[4′,3′:4,5]thi-eno[2,3-d]pyrimidin-4-yl)-6-methyl-1,4-oxazepan-6-ol], the IC50 on KRAS-WT was 8.47 nM; in experiment [1], 55.8 nM; on KRAS-G12D, 5.46 nM; on KRAS-G12V it was 20.4 nM; on KRAS-G13D, 7.22 nM; with MKN-1 cells (setting [2]), 28.1 nM. Moreover, the IC50 in the experiment on AsPC-1 cells (KRAS-G12D, 2 hours) came to 24.1 nM; with SW620 cells (SW-620, KRAS-G12V, 2 hours), 18.5 nM.

For the compound `C[C@@]1(O)COCCN(c2nc(OC[C@@]34CCCN3C/C(=C\F)C4)nc3sc4c(-c5c(C6CC6)c(Cl)cc6[nH]ncc56)nccc4c23)C1` [Ex-208, (6S)-4-(8-(6-chloro-5-cyclopropyl-1H-indazol-4-yl)-2-(((S,Z)-2-(fluoromethylene)tetrahydro-1H-pyrrolizin-7a(5H)-yl)methoxy)pyrido[4′,3′:4,5]thieno[2,3-d]pyrimidin-4-yl)-6-methyl-1,4-oxazepan-6-ol], the IC50 on KRAS-WT is 5.79 nM; in experiment [1] it was 44.5 nM; at KRAS-G12D, 2.44 nM; on KRAS-G12V it was 11.1 nM; on KRAS-G13D, 20.2 nM; in the experiment on MKN-1 cells (2 hours compound incubation), 63.6 nM. Besides, the values for the IC50 in the experiment on AsPC-1 cells (2 hours compound incubation) and with SW620 cells (setting [3]) were 20.4 nM and 17 nM, respectively.

Consider `Cc1cc2[nH]ncc2c(-c2nccc3c2sc2nc(OC[C@@]45CCCN4C[C@H](F)C5)nc(N4CCOC[C@@](C)(O)C4)c23)c1C1CC1` [Ex-141, (6S)-4-(8-(5-cyclo-propyl-6-methyl-1H-indazol-4-yl)-2-(((2R,7aS)-2-fluoro-tetrahydro-1H-pyr-rolizin-7a(5H)-yl)-methoxy)pyrido [4′,3′:4,5]thieno[2,3-d]pyrimidin-4-yl)-6-methyl-1,4-oxaze-pan-6-ol], for which the IC50 amounted to 18.1 nM on KRAS-WT; 87.7 nM in experiment [1]; 7.5 nM on KRAS-G12D; 16.5 nM on KRAS-G12V; 14.4 nM on KRAS-G13D; 53.1 nM with MKN-1 cells (2 hours compound incubation). The figures for the IC50 in the experiment with AsPC-1 cells (2 hours compound incubation) and with SW620 cells (setting [3]) were 38 nM and 131 nM, respectively.

The IC50 is the concentration at which inhibition is half-maximal.
